In patent US8039621B2, “Process for preparing anhydrous Aripirazole type I” (Cambrex Charles City, Inc., priority 2006, dated 2011):

Test: Hygroscopicity of dried anhydrous aripiprazole Type I crystals
Assay type: physicochemical
Details: vacuum of 22 inches Hg
Procedure: […] A dish of phosphorous pentoxide (dessicant) also was placed in the oven. Periodically, approximately a one (1) gram sample of the aripiprazole wet cake was removed from the oven and analyzed for moisture content by the volumetric Karl Fischer titration method and also for its hygroscopicity. At the end of the 40 hour period, the moisture content of the final sample was analyzed using the coulometric Karl Fischer titration method and the hygroscopicity of the sample also was determined.
Another portion of the aripiprazole wet cake (20 g), prepared in accordance with the above-described procedure, was placed in a drying oven, the oven maintained at a temperature between 70 to 80° C., and under a vacuum of 22 inches Hg for a period of 40 hours. A dish of phosphorous pentoxide (dessicant) also was placed in the oven to facilitate drying. Periodically, approximately a one (1) gram sample of the aripiprazole wet cake was removed from the oven and analyzed for moisture content by the volumetric Karl Fischer titration method and also for its hygroscopicity. At the end of the 40 hours, the moisture content of the final sample was analyzed using the coulometric Karl Fischer titration method and the hygroscopicity of the sample also was determined.

[1] = final sample after 40 Hours in 60 to 65° C. Oven
[2] = final sample after 40 Hours in 70 to 80° C. Oven

## O=C1CCc2ccc(OCCCCN3CCN(c4cccc(Cl)c4Cl)CC3)cc2N1 [Batch 1, 7-[4-[4-(2,3-dichlorophenyl)-1-piperazinyl]butoxy]-3,4-dihydro-2-(1H)-quinolinone]
[1]
  Hygroscopicity (%): 3.2%
[2]
  Hygroscopicity (%): 0.8%

## O=C1CCc2ccc(OCCCCN3CCN(c4cccc(Cl)c4Cl)CC3)cc2N1 [Batch 2, 7-[4-[4-(2,3-dichlorophenyl)-1-piperazinyl]butoxy]-3,4-dihydro-2-(1H)-quinolinone]
[1]
  Hygroscopicity (%): 1.2%
[2]
  Hygroscopicity (%): 0.7%

## O=C1CCc2ccc(OCCCCN3CCN(c4cccc(Cl)c4Cl)CC3)cc2N1 [Batch 3, 7-[4-[4-(2,3-dichlorophenyl)-1-piperazinyl]butoxy]-3,4-dihydro-2-(1H)-quinolinone]
[1]
  Hygroscopicity (%): 1.8%
[2]
  Hygroscopicity (%): 0.4%
